Test results taken from US6756389B2, “Pharmaceutically active compounds and methods of use” (Cambridge Neuroscience, Inc., priority 1996, dated 2004).
Counter-ions that a name gives are not always drawn.

test system: DBA/2 mice (audiogenic seizures); experiment: In vivo anticonvulsant activity in the DBA/2 mouse model (mouse audiogenic assay); conditions: 10 mg/kg intraperitoneally 30 minutes prior to auditory stimulus (12 KHz sine wave, 110-120 db, 60 seconds), inhibition relative to vehicle controls
Description: As discussed above, preferred compounds of the invention are active in a standard anticonvulsant in vivo audiogenic test, such as the audiogenic mouse assay of Example 6 which follows, where DBA/2 mice about 20-23 days old are injected intraperitoneally with a test compound 30 minutes prior to being placed in a bell jar with exposure to auditory stimulus of 12 KHz sine wave at 110-120 db. References herein in vivo “audiogenic assay” are intended to refer to that protocol. […] As discussed above, activity in the audiogenic assay has been recognized as indicative that a test compound has neuroprotective properties. See, e.g., M. Tricklebank et al., European Journal of Pharmacology, supra; T. Seyfried, Federation Proceedings, supra.
Compounds were tested for their effectiveness in preventing seizures in DBA/2 mice which have a unique sensitivity to auditory stimulation. Exposure to loud high-frequency sounds can trigger seizure activity in these animals. […]
Mice were injected intraperitoneally with the compound specified in Table I below or with vehicle control, 30 minutes prior to being placed in a bell jar and turning on the auditory stimulus (12 KHz sine wave at 110-120 db). […] The auditory stimulus was left on for 60 seconds and mice reactions were timed and recorded. Percentage inhibition was determined with reference to vehicle controls.

SMILES	Audiogenic Response % Inhib.
Cc1ccc([C@H]2CCC[C@@H](c3ccc(C)cc3)N2C(=N)N)cc1 [Example 1, N-carboximidamide-r-2, c-6-di(4-methylphenyl)piperidine]	42%
CC(C)c1ccc([C@H]2CCC[C@@H](c3ccc(C(C)C)cc3)N2C(=N)N)cc1.Cl [Example 2, N-carboximidamide-r-2,c-6-di(4-isopropylphenyl)piperidine]	69%

test system: not given; experiment: not given; conditions: not given

SMILES	melting point
Cc1ccc([C@H]2CCC[C@H](c3ccc(C)cc3)N2C(=N)N)cc1.Cl	120 °C
Cc1ccc([C@H]2CCC[C@@H](c3ccc(C)cc3)N2C(=N)N)cc1 (as salt: mesylate) [Example 1, N-carboximidamide-r-2, c-6-di(4-methylphenyl)piperidine]	183 to 185 °C
CC(C)c1ccc([C@H]2CCC[C@@H](c3ccc(C(C)C)cc3)N2C(=N)N)cc1.Cl [Example 2, N-carboximidamide-r-2,c-6-di(4-isopropylphenyl)piperidine]	197 to 199 °C

Results, then the molecule that gave them:

melting point	SMILES
242 to 244 °C	Cl.N=C(N)N1[C@@H](c2ccccc2)CC[C@H]1c1ccccc1
82 to 84 °C	Cl.N=C(Nc1ccccc1)N1[C@@H](c2ccccc2)CCC[C@H]1c1ccccc1
